Data set [1] concerns NY-ESO-1+ MDA-MB-468 cells. Nature of the data set: NY-ESO-1+ MDA-MB-468 organoid and NY-ESO-1-specific CD8+ T cell co-culture cytotoxicity. Type of data set: cell-based, human. The note with it: MDA-MB-468/CAF organoids; FIG. 2C. As for the experimental part: (§1) Breast tumor organoid culture: Single cells isolated from EO771-derived tumors in tumor-bearing C57BL/6 mice were suspended into cold mouse breast cancer culture medium containing 10% Matrigel (Corning) with a concentration of 2×10^5 cells ml^−1. The cells (2 ml) were seeded into each well of pre-warmed 6-well microplate with ultra-low attachment surface (Corning) and cultured at 37° C. with 5% CO2. The same volume of fresh culture medium was added every other day. After 7-day culture, tumor organoids were collected using cell strainers with pore size of 70 and 150 μm. For human tumor organoid culture, 2 ml of NY-ESO-1+ MDA-MB-468 cells with a concentration of 2×10^5 cells ml-1 were seeded into each well of the prewarmed 6-well microplate with ultra-low attachment surface. The cells were cultured for two days to generate tumor spheroids. The resulting spheroids were mixed with cancer associated fibroblasts (CAFs) with a ratio of 2:1 (tumor cells versus CAFs) and cultured in the human breast cancer organoid culture medium3 for 5 days. Finally, the MDA-MB-468 tumor organoids with diameter of 70˜150 μm were used for co-culture with NY-ESO-1-specific human CD8+ T cells (ASTARTE Biologics). Patient-derived organoids (PDOs) were cultured following the same procedures as mouse EO771 tumor organoids using human breast cancer organoid culture medium.
Cytotoxicity of CD8+ T cells in the co-culture with tumor organoids We generated mouse EO771 (Luc+OVA+) cell line that presents OVA257-264 antigen (from chicken ovalbumin) and human MDA-MB-468 (NY-ESO-1+) cell line that presents NY-ESO-1 antigen for use in the T cell-mediated cytotoxicity assay. OVA-specific CD8+ T cells were isolated from the spleen of OT-I mouse that contains transgenic inserts of Tcra-V2 and Tcrb-V5 genes. The transgenic T cell receptor can recognize the ovalbumin peptide SIINFEKL (OVA257-264; SEQ ID NO: 55). […] The cells were co-cultured for 24 h and subject to further analyses, such as optical and fluorescence imaging, luciferase assay or flow cytometry.

A further data set has as its system EO771 tumors. Nature of the data set: EO771 orthotopic breast tumor model in immunodeficient nude (NU/J) mice. Type of data set: in vivo. The note with it: for tumor growth and weight: immune-deficient nude mice, 20 mg kg-1, vs control group; for size of gross dissected mammary EO771 tumors: nude mice, 20 mg kg−1, harvested day 18. As for the experimental part:
Animal studies: All animal experiments were performed in accordance with the National Institutes of Health's Animal Use Guidelines and protocols approved by the Animal Care and Use Committee of Indiana University School of Medicine. […] Each mouse was injected with a total of 2×10^5 tumor cells. 5 mice were used in each group. Tumors were measured in two dimensions using a manual caliper. Tumor volume was calculated using the following formula: V=0.5×length×width×width. Tumor volume was measured every 3 days. Tumors were harvested 22 days after injection. The tumor growth, volume and weight were analyzed. To evaluate the anti-tumor effect of drugs in immunocompetent C57BL/6 mice and immunodeficient nude (NU/J) mice, 2×10^5 EO771 cells were orthotopically injected into fat pad of the 4th mammary gland in female mice. […] For CD4/CD8 depletion experiment, the tumor-bearing mice were randomly divided into 7 groups (n=8 mice/group) including isotype control (rat IgG2a, Bioxcell), isotype control+CUDC-101, isotype control+BML-210, anti-CD8 (Clone: 53-6.72, Bioxcell)+CUDC-101, anti-CD8+BML-210, anti-CD4 (Clone: GK1.5, Bioxcell)+CUDC-101, or anti-CD4+BML-210. Intraperitoneal injection of inhibitors (20 mg kg-1) and anti-CD4/CD8 (10 mg kg-1) were administrated to the mice by 3 times/week for 2 weeks. The tumors were harvested at day 18 (NU/J mice) or day 28 (C57BL/6 mice) for further analyses. In immune checkpoint blockade experiment, 2×10^5 EO771 cells were orthotopically injected into fat pad of the 4th mammary gland in female C57BL/6 mice. From day 10, the tumor-bearing mice were randomly divided into each treatment group (n=8 mice/group), and the mice were treated with IgG2a isotype control antibody (clone 2A3, Bioxcell), BML-210 (20 mg kg-1), anti-PD-1 (200 μg/mouse, Bioxcell), or BML-210 and anti-PD-1 combo. The treatment was done 3 times/week for 2 weeks. Tumors were harvested at day 26 post injection and the tumors were analyzed by IHC staining, flow cytometry, ELISA or CyTOF assay.

Data set [2] is described as follows: Organ damage in treated mice. In kind it is in vivo.
Data set [3] relates to PDOs from breast cancer patients. Nature of the data set: Patient-derived organoids co-cultured with autologous CD8+ T cells. The note with it: for T cell cytotoxicity: PDO2 and PDO7. In kind it is cell-based, human. On the procedure:
as §1
Cytotoxicity of CD8+ T cells in the co-culture with tumor organoids We generated mouse EO771 (Luc+OVA+) cell line that presents OVA257-264 antigen (from chicken ovalbumin) and human MDA-MB-468 (NY-ESO-1+) cell line that presents NY-ESO-1 antigen for use in the T cell-mediated cytotoxicity assay. OVA-specific CD8+ T cells were isolated from the spleen of OT-I mouse that contains transgenic inserts of Tcra-V2 and Tcrb-V5 genes. The transgenic T cell receptor can recognize the ovalbumin peptide SIINFEKL (OVA257-264; SEQ ID NO: 55). Anti-NY-ESO-1 human CD8^+ T cells (CELLERO™) were used to recognize the NY-ESO-1+ MDA-MB-468 cells. Autologous human CD8+ T cells were isolated from patient tumor tissues and amplified in the DMEM/F12 medium supplemented with 10% FBS, 2 mM Ultraglutamine I, 1% penicillin/streptomycin and 10 ng mL-1 of human IL2 for 7 days. The CD8+ T cells were stimulated by the T-activator CD3/CD28 Dynabeads (Gibco, 11452D for mouse and 11131D for human) for 48 h prior to use for cytotoxicity assay. Mouse and human tumor organoids with diameter between 70 and 150 μm were collected and mixed with corresponding CD8+ T cells in DMEM/F12 medium supplemented with 10% FBS, 2 mM Ultraglutamine I, 1% penicillin/streptomycin and 10 ng mL-1 IL2 (Biolegend, mouse: 575402; human: 589102) at a ratio of organoids versus T cells at 1:200 in the microplates with ultra-low attachment surface. The cells were co-cultured for 24 h and subject to further analyses, such as optical and fluorescence imaging, luciferase assay or flow cytometry.
There is an unmet clinical need to predict responsiveness to new cancer immunotherapy. Both syngeneic mouse models and humanized patient-derived xenograft (PDX) models are time-consuming and not cost-efficient. Here, we wanted to apply the standardized tumor organoid model in this study to predict the therapeutic responses to BML-210, CUDC-101 and GSK-LSD1. In this setting, autologous CD8+ T cells were isolated from patient tumor tissues and amplified for a week. Patient-derived organoids (PDOs) were generated from 10 patients with breast cancer (Table 2). The PDOs from each patient were characterized and compared with their originating tumors using Hematoxylin and eosin (H&E) staining and immunofluorescence imaging analysis. EpCAM and SMA were used as biomarkers to identify tumor epithelial cells and cancer-associated fibroblast cells, respectively, which are the main components of a breast tumor tissue. […] We were able to isolate reasonable numbers (>1×10^5) of autologous T cells from 8 out of 10 breast tumor tissues. […]

Setting [4] is: PDO1, PDO3, PDO4, PDO5 and PDO8, 48 h pretreatment.

From patent US20240299321A1, “METHODS TO SENSITIZE CANCER CELLS AND STANDARDIZED SCREENING ASSAY FOR IMMUNOTHERAPY” (THE TRUSTEES OF INDIANA UNIVERSITY, priority 2020, published 2024) come the findings set out here.

For the compound `Nc1ccccc1NC(=O)CCCCCCC(=O)Nc1ccccc1` [BML-210], the T cell-mediated cytotoxicity result in data set [1] is “pronouncedly induced”; in data set [3] (setting [4]), “significantly higher T cell-mediated cytotoxicity”; in data set [3] (PDO6) it was “higher T cell-mediated cytotoxicity”. The “tumor growth and weight” value in the data set on EO771 tumors is reported as “No significant differences”. In the data set on EO771 tumors, the “size of gross dissected mammary EO771 tumors” value is on record as “no significant difference in size”. For the same compound, the “visible damages in the heart, kidney, spleen, liver and lung” value in data set [2] is “No visible damages”. Further, the T cell cytotoxicity entry in data set [3] is on record as “only moderate increases (statistically not significant)”.

As for `C#Cc1cccc(Nc2ncnc3cc(OC)c(OCCCCCCC(=O)NO)cc23)c1` [CUDC-101], the T cell-mediated cytotoxicity entry is listed as “pronouncedly induced” in data set [1], “significantly higher T cell-mediated cytotoxicity” in data set [3] (setting [4]) and “modest effect” in data set [3] (PDO6). Besides, in the data set on EO771 tumors, the “tumor growth and weight” value is recorded as “No significant differences”. In the data set on EO771 tumors, the “size of gross dissected mammary EO771 tumors” value is listed as “no significant difference in size”. For the same compound, the “visible damages in the heart, kidney, spleen, liver and lung” value in data set [2] is given as “No visible damages”. Besides, in data set [3], the T cell cytotoxicity entry is “only moderate increases (statistically not significant)”.

Take `c1ccc([C@@H]2C[C@H]2NC2CCNCC2)cc1` [GSK-LSD1]: the T cell-mediated cytotoxicity entry in data set [1] is “pronouncedly induced”; in data set [3] (setting [4]), “significantly higher T cell-mediated cytotoxicity”; in data set [3] (PDO6), “higher T cell-mediated cytotoxicity”. For the same compound, the T cell cytotoxicity entry in data set [3] is reported as “only moderate increases (statistically not significant)”.
